Source: US20260027101A1, “BACTERIAL TOPOISOMERASE INHIBITORS” (priority 2022, published 2026)
Converted amounts (≈) assume the structure as drawn.

How the values were obtained:
Assay type in all cases: cell-based
[1] = system: Staphylococcus aureus D83N (29213-derived strain, GyrA substitution); experiment: microbe, parasite or virus in culture; conditions: read-out: MIC against Staphylococcus aureus D83N
Experimental: (§1) Minimum inhibitory concentrations (MICs) were determined in triplicate according to Clinical and Laboratory Standards Institute (CLSI) guidelines using one or more strains of S. aureus or selected Gram-negative bacteria. […] Compounds were also assayed using a USA300 (Hidron, A. I., et al., Emergence of Community-Acquired Meticillin-Resistant Staphylococcus aureus Strain USA300 as a Cause of Necrotising Community-Onset Pneumonia. Lancet Infect. Dis. 2009, 9. 384-392) isolate of MRSA as well as a S. aureus strain isolated from a cystic fibrosis patient.

[2] = system: Salmonella enterica 14028 ΔtolC (efflux-deficient strain); experiment: microbe, parasite or virus in culture; conditions: for MIC: Salmonella enterica, read-out: MIC against Salmonella enterica 14028 ΔtolC
Experimental: as §1

[3] = system: Staphylococcus aureus M121K (29213-derived strain, GyrA substitution); experiment: microbe, parasite or virus in culture; conditions: read-out: MIC against Staphylococcus aureus M121K
Experimental: as §1

[4] = system: Escherichia coli ATCC 25922; experiment: MIC, Escherichia coli ATCC 25922; conditions: ATCC25922, read-out: MIC against Escherichia coli ATCC 25922
Experimental: as §1

[5] = system: Salmonella enterica ATCC 14028; experiment: MIC, Salmonella enterica ATCC 14028; conditions: ATCC14028, read-out: MIC against Salmonella enterica ATCC 14028
Experimental: as §1

[6] = system: Staphylococcus aureus ATCC 29213; experiment: MIC, S. aureus ATCC 29213 (CLSI); conditions: ATCC29213, read-out: MIC against Staphylococcus aureus ATCC 29213
Experimental: as §1

[7] = system: Staphylococcus aureus CF isolate; experiment: MIC, S. aureus cystic fibrosis isolate (CLSI); conditions: read-out: MIC against Staphylococcus aureus CF isolate
Experimental: as §1

[8] = system: Acinetobacter baumanii ATCC 19606; experiment: MIC, Acinetobacter baumanii ATCC 19606; conditions: Acinetobacter baumannii, ATCC19606, read-out: MIC against Acinetobacter baumanii ATCC 19606
Experimental: as §1

[9] = system: Pseudomonas aeruginosa ATCC 27853; experiment: MIC, Pseudomonas aeruginosa ATCC 27853; conditions: ATCC27853, read-out: MIC against Pseudomonas aeruginosa ATCC 27853
Experimental: as §1

[10] = system: Staphylococcus aureus USA300 (MRSA isolate); experiment: MIC, S. aureus USA300 MRSA isolate (CLSI); conditions: read-out: MIC against Staphylococcus aureus USA300
Experimental: as §1

Compound | MIC [1] [µg/mL] | MIC [2] [µg/mL] | MIC [3] [µg/mL] | further results
COc1ccc2ncc(F)c(CCN3CCC(C(O)C(O)c4ccc(C)cc4)CC3)c2n1 (single isomer, unassigned) [Example 13, 1-(1-(2-(3-fluoro-6-methoxy-1,5-naphthyridin-4-yl)ethyl)piperidin-4-yl)-2-(p-tolyl)ethane-1,2-diol] | > 32 |  |  | 
COc1ccc2ncc(F)c(CCN3CCC(C(O)C(O)c4ccc5c(c4)NC(=O)CO5)CC3)c2n1 (single isomer, unassigned) [Example 15, 6-(-2-(1-(2-(3-fluoro-6-methoxy-1,5-naphthyridin-4-yl)ethyl)piperidin-4-yl)-1,2-dihydroxyethyl)-2H-benzo[b][1,4]oxazin-3(4H)-one] |  | 0.5 (≈ 1.01 µM) |  | 
COc1ccc2ncc(F)c(CCN3CCC(C(O)C(O)c4ccc(C)cc4)CC3)c2n1 (single isomer, unassigned) [Example 16, 1-(1-(2-(3-fluoro-6-methoxy-1,5-naphthyridin-4-yl)ethyl)piperidin-4-yl)-2-(p-tolyl)ethane-1,2-diol] |  |  | 4 (≈ 9.1 µM) | 
COc1ccc2ncc(F)c(CCN3CCC(/C=C/c4ccc(C)cc4)CC3)c2n1 [Example 1, (E)-7-fluoro-2-methoxy-8-(2-(4-(4-methylstyryl)piperidin-1-yl)ethyl)-1,5-naphthyridine] |  | 0.5 to 1 (≈ 1.23 to 2.47 µM) | 2 to 4 (≈ 4.93 to 9.86 µM) | 
COc1ccc2ncc(F)c(CCN3CCC(/C=C/c4ccc5c(c4)OCCO5)CC3)c2n1 [Example 2, (E)-8-(2-(4-(2-(2,3-dihydrobenzo[b][1,4]dioxin-6-yl)vinyl)piperidin-1-yl)ethyl)-7-fluoro-2-methoxy-1,5-naphthyridine] | 2 (≈ 4.45 µM) |  | 2 (≈ 4.45 µM) | MIC [4]: 8 µg/mL (≈ 17.8 µM); MIC [5]: 64 µg/mL (≈ 142 µM); MIC [6]: 0.25 µg/mL (≈ 0.556 µM); MIC [7]: 0.5 µg/mL (≈ 1.11 µM); MIC [8]: 8 µg/mL (≈ 17.8 µM); MIC against Salmonella enterica 14028 ΔtolC ([2]; efflux-deficient strain): 0.125 µg/mL (≈ 0.278 µM); MIC [9]: 64 µg/mL (≈ 142 µM); MIC [10]: 0.5 µg/mL (≈ 1.11 µM)
COc1ccc2ncc(F)c(CCN3CCC(/C=C/c4ccc5c(c4)NC(=O)CO5)CC3)c2n1 [Example 3, (E)-6-(2-(1-(2-(3-fluoro-6-methoxy-1,5-naphthyridin-4-yl)ethyl)piperidin-4-yl)vinyl)-2H-benzo[b][1,4]oxazin-3(4H)-one] | 16 (≈ 34.6 µM) | 0.25 (≈ 0.541 µM) | 16 (≈ 34.6 µM) | MIC [4]: 4 µg/mL (≈ 8.65 µM); MIC [5]: 16 µg/mL (≈ 34.6 µM); MIC [6]: 0.5 µg/mL (≈ 1.08 µM); MIC [7]: 1 µg/mL (≈ 2.16 µM); MIC [8]: 8 µg/mL (≈ 17.3 µM); MIC [9]: 4 µg/mL (≈ 8.65 µM); MIC [10]: ≤ 0.25 µg/mL
COc1ccc2ncc(F)c(CCN3CCC([C@@H](O)[C@H](O)c4ccc(C)cc4)CC3)c2n1 [Example 4, (1R,2R)-1-(1-(2-(3-fluoro-6-methoxy-1,5-naphthyridin-4-yl)ethyl)piperidin-4-yl)-2-(p-tolyl)ethane-1,2-diol] |  | 0.5 to 1 (≈ 1.14 to 2.28 µM) |  | 
COc1ccc2ncc(F)c(CCN3CCC([C@@H](O)[C@H](O)c4ccc5c(c4)OCCO5)CC3)c2n1 [Example 5, (1R,2R)-1-(2,3-dihydrobenzo[b][1,4]dioxin-6-yl)-2-(1-(2-(3-fluoro-6-methoxy-1,5-naphthyridin-4-yl)ethyl)piperidin-4-yl)ethane-1,2-diol] |  | 0.5 (≈ 1.03 µM) |  | 
COc1ccc2ncc(F)c(CCN3CCC([C@@H](O)[C@H](O)c4ccc5c(c4)NC(=O)CO5)CC3)c2n1 [Example 6, 6-((1R,2R)-2-(1-(2-(3-fluoro-6-methoxy-1,5-naphthyridin-4-yl)ethyl)piperidin-4-yl)-1,2-dihydroxyethyl)-2H-benzo[b][1,4]oxazin-3(4H)-one] | > 32 |  | > 32 | 
COc1ccc2ncc(F)c(CCN3CCC([C@H](O)[C@@H](O)c4ccc(C)cc4)CC3)c2n1 [Example 7, (1S,2S)-1-(1-(2-(3-fluoro-6-methoxy-1,5-naphthyridin-4-yl)ethyl)piperidin-4-yl)-2-(p-tolyl)ethane-1,2-diol] | > 32 |  | > 32 | 
COc1ccc2ncc(F)c(CCN3CCC([C@H](O)[C@@H](O)c4ccc5c(c4)NC(=O)CO5)CC3)c2n1 [Example 9, 6-((1S,2S)-2-(1-(2-(3-fluoro-6-methoxy-1,5-naphthyridin-4-yl)ethyl)piperidin-4-yl)-1,2-dihydroxyethyl)-2H-benzo[b][1,4]oxazin-3(4H)-one] | > 32 | 0.25 (≈ 0.503 µM) | > 32 | 
COc1ccc2ncc(F)c(CCN3CCC(/C=C\c4ccc(C)cc4)CC3)c2n1 [Example 10, (Z)-7-fluoro-2-methoxy-8-(2-(4-(4-methylstyryl)piperidin-1-yl)ethyl)-1,5-naphthyridine] | 32 (≈ 78.9 µM) | 8 (≈ 19.7 µM) | 32 (≈ 78.9 µM) | 
COc1ccc2ncc(F)c(CCN3CCC(CCc4ccc(C)cc4)CC3)c2n1 [Example 19, 7-fluoro-2-methoxy-8-(2-(4-(4-methylphenethyl)piperidin-1-yl)ethyl)-1,5-naphthyridine] | 4 (≈ 9.82 µM) |  | > 16 | 
COc1ccc2ncc(F)c(CCN3CCC(CCc4ccc5c(c4)OCCO5)CC3)c2n1 [Example 20, 8-(2-(4-(2-(2,3-dihydrobenzo[b][1,4]dioxin-6-yl)ethyl)piperidin-1-yl)ethyl)-7-fluoro-2-methoxy-1,5-naphthyridine] | 8 (≈ 17.7 µM) | 0.25 (≈ 0.554 µM) | > 8 | 
COc1ccc2ncc(F)c(CCN3CCC(CCc4ccc5c(c4)NC(=O)CO5)CC3)c2n1 [Example 21, 6-(2-(1-(2-(3-fluoro-6-methoxy-1,5-naphthyridin-4-yl)ethyl)piperidin-4-yl)ethyl)-2H-benzo[b][1,4]oxazin-3(4H)-one] |  |  | 64 (≈ 138 µM) | 
COc1ccc2ncc(F)c(CCN3CCC(C(=O)Cc4ccc5c(c4)OCCO5)CC3)c2n1 [Example 23, 2-(2,3-dihydrobenzo[b][1,4]dioxin-6-yl)-1-(1-(2-(3-fluoro-6-methoxy-1,5-naphthyridin-4-yl)ethyl)piperidin-4-yl)ethan-1-one] | 32 (≈ 68.7 µM) |  | > 32 | MIC [5]: > 64 µg/mL; MIC [7]: 8 µg/mL (≈ 17.2 µM); MIC [9]: > 64 µg/mL
COc1ccc2ncc(F)c(CCN3CCC(C(O)Cc4ccc(C)cc4)CC3)c2n1 (centres unmarked) [Example 25, 1-(1-(2-(3-fluoro-6-methoxy-1,5-naphthyridin-4-yl)ethyl)piperidin-4-yl)-2-(p-tolyl)ethan-1-ol] | 8 (≈ 18.9 µM) | 1 (≈ 2.36 µM) | 8 (≈ 18.9 µM) | 
COc1ccc2ncc(F)c(CCN3CCC(C(O)Cc4ccc5c(c4)OCCO5)CC3)c2n1 (centres unmarked) [Example 26, 2-(2,3-dihydrobenzo[b][1,4]dioxin-6-yl)-1-(1-(2-(3-fluoro-6-methoxy-1,5-naphthyridin-4-yl)ethyl)piperidin-4-yl)ethan-1-ol] | 4 (≈ 8.56 µM) |  | 4 (≈ 8.56 µM) | 
COc1ccc2ncc(F)c(CCN3CCC(C(O)Cc4ccc5c(c4)OCC(=O)N5)CC3)c2n1 (centres unmarked) [Example 27, 7-(2-(1-(2-(3-fluoro-6-methoxy-1,5-naphthyridin-4-yl)ethyl)piperidin-4-yl)-2-hydroxyethyl)-2H-benzo[b][1,4]oxazin-3(4H)-one] |  | ≤ 0.125 | 32 (≈ 66.6 µM) | 
COc1ccc2ncc(F)c(CCN3CCC(C(N)Cc4ccc(C)cc4)CC3)c2n1 (centres unmarked) [Example 28, 1-(1-(2-(3-fluoro-6-methoxy-1,5-naphthyridin-4-yl)ethyl)piperidin-4-yl)-2-(p-tolyl)ethan-1-amine] | 32 (≈ 75.7 µM) |  | > 32 | 
COc1ccc2ncc(F)c(CCN3CCC(C(N)Cc4ccc5c(c4)OCCO5)CC3)c2n1 (centres unmarked) [Example 29, 2-(2,3-dihydrobenzo[b][1,4]dioxin-6-yl)-1-(1-(2-(3-fluoro-6-methoxy-1,5-naphthyridin-4-yl)ethyl)piperidin-4-yl)ethan-1-amine] | > 16 |  | > 16 | 
COc1ccc2ncc(F)c(CCN3CCC(C(N)Cc4ccc5c(c4)NC(=O)CO5)CC3)c2n1 (centres unmarked) [Example 30, 6-(2-amino-2-(1-(2-(3-fluoro-6-methoxy-1,5-naphthyridin-4-yl)ethyl)piperidin-4-yl)ethyl)-2H-benzo[b][1,4]oxazin-3(4H)-one] |  |  | > 64 | 
CN[C@H](CC(C)C)C(=O)N[C@H]1C(=O)N[C@@H](CC(N)=O)C(=O)N[C@H]2C(=O)N[C@H]3C(=O)N[C@H](C(=O)N[C@H](C(=O)O)c4cc(O)cc(O)c4-c4cc3ccc4O)[C@H](O)c3ccc(c(Cl)c3)Oc3cc2cc(c3O[C@@H]2O[C@H](CO)[C@@H](O)[C@H](O)[C@H]2O[C@H]2C[C@](C)(N)[C@H](O)[C@H](C)O2)Oc2ccc(cc2Cl)[C@H]1O [vancomycin, reference compound] | 1 (≈ 0.69 µM) |  | 1 (≈ 0.69 µM) | MIC [6]: 1 to 2 µg/mL (≈ 0.69 to 1.38 µM); MIC [7]: 1 µg/mL (≈ 0.69 µM); MIC [10]: 1 µg/mL (≈ 0.69 µM)
